Source: PubChem BioAssay AID208 (DTP/NCI, 2004)
Values joined by “and” are separate entries in the source; they are usually repeats but may differ in a detail not shown here. Equal entries are not always repeated. Inconclusive results are not listed.

Test system: HT29 intrarenal xenograft, nude mice, tumor weight change
Assay: NCI In Vivo Anticancer Drug Screen. Data for tumor model HT29;CX-1 Human Adenocarcinoma (MER+) (intrarenal inoculation) in NU/NU BALB/C (nude) mice
Settings: endpoint: mean tumor weight change, higher = larger tumour
Description: The antitumor activity of compounds was measured in mice bearing transplantable tumors. Survival or tumor size were measured and the results are expressed as the measurement made in the treated group (T) divided by the measurement made in the vehicle treated control group (C). The tumor model used in this assay is HT29;CX-1 Human Adenocarcinoma (MER+) (intrarenal inoculation) in NU/NU BALB/C (nude) mice

[1] = dose: 300.0 mg/kg/injection, schedule: Q04DX004 (sc), vehicle: saline with Tween-80
[2] = dose: 600.0 mg/kg/injection, schedule: Q04DX004 (sc), vehicle: saline with Tween-80
[3] = dose: 1200.0 mg/kg/injection, schedule: Q04DX004 (sc), vehicle: saline with Tween-80
[4] = dose: 2400.0 mg/kg/injection, schedule: Q04DX004 (sc), vehicle: saline with Tween-80
[5] = dose: 3.0 mg/kg/injection, schedule: Q04DX004 (sc), vehicle: saline
[6] = dose: 6.0 mg/kg/injection, schedule: Q04DX004 (sc), vehicle: saline

SMILES: CN(C)c1ccc2c(NCCCCCCNc3ccnc4cc(N(C)C)ccc34)ccnc2c1
- T/C (dose: 37.5 mg/kg/injection, schedule: Q04DX004 (sc), vehicle: distilled water + Tween-80 + alcohol): 92 % of control
- T/C (dose: 75.0 mg/kg/injection, schedule: Q04DX004 (sc), vehicle: distilled water + Tween-80 + alcohol): 60 % of control
- T/C (dose: 150.0 mg/kg/injection, schedule: Q04DX004 (sc), vehicle: distilled water + Tween-80 + alcohol): 54 % of control

SMILES: COc1cc2c(ccc3c4cc(OC)c(OC)cc4c[n+](C)c23)cc1O
- T/C (dose: 75.0 mg/kg/injection, schedule: Q04DX004 (sc), vehicle: saline): 49 % of control
- T/C (dose: 150.0 mg/kg/injection, schedule: Q04DX004 (sc), vehicle: saline): 42 % of control
- T/C (dose: 300.0 mg/kg/injection, schedule: Q04DX004 (sc), vehicle: saline): 51 % of control
- T/C (dose: 600.0 mg/kg/injection, schedule: Q04DX004 (sc), vehicle: saline): 75 % of control

SMILES: N=C(N)c1ccc(/C=C/c2ccc(C(=N)N)cc2O)cc1
- T/C (dose: 75.0 mg/kg/injection, schedule: Q04DX004 (sc), vehicle: water): 101 % of control
- T/C (dose: 150.0 mg/kg/injection, schedule: Q04DX004 (sc), vehicle: water): 86 % of control

SMILES: O=C(c1cccnc1)c1cc(-c2ccccn2)c(=O)n2ccccc12
- T/C [1]: 87 % of control
- T/C [2]: 21 % of control
- T/C [3]: 77 % of control
- T/C [4]: 83 % of control

SMILES: C[n+]1c(-c2cccc3ccccc23)c2cc(N)ccc2c2ccccc21
- T/C [5]: 119 % of control
- T/C [6]: 152 % of control
- T/C (dose: 12.0 mg/kg/injection, schedule: Q04DX004 (sc), vehicle: saline): 78 % of control

SMILES: CC(C)CCC(=O)c1ccoc1
- T/C (dose: 0.75 mg/kg/injection, schedule: Q01DX010 (ip), vehicle: saline with Tween-80): 85 % of control
- T/C (dose: 1.5 mg/kg/injection, schedule: Q01DX010 (ip), vehicle: saline with Tween-80): 87 % of control
- T/C (dose: 3.0 mg/kg/injection, schedule: Q01DX010 (ip), vehicle: saline with Tween-80): 75 % of control and 91 % of control
- T/C (dose: 6.0 mg/kg/injection, schedule: Q01DX010 (ip), vehicle: saline with Tween-80): 74 % of control and 94 % of control

SMILES: c1ccc2c(c1)-c1ccccc1C1NC21 (configuration not stated)
- T/C (dose: 75.0 mg/kg/injection, schedule: Q04DX004 (sc), vehicle: saline with Tween-80): 41 % of control

SMILES: CC(=O)OCC(=O)[C@@]12OC(C)(C)O[C@@H]1C[C@H]1[C@@H]3CC(C=O)=C4C=C(OCCCl)CC[C@]4(C)[C@@]3(F)[C@@H](O)C[C@@]12C
- T/C (dose: 50.0 mg/kg/injection, schedule: Q04DX004 (sc), vehicle: Klucel (hydroxypropylcellulose) (HPC)): 101 % of control
- T/C (dose: 100.0 mg/kg/injection, schedule: Q04DX004 (sc), vehicle: Klucel (hydroxypropylcellulose) (HPC)): 23 % of control

SMILES: CC(=O)c1cccc(NC2C(N)C(NC(=O)N(C)C)(C(C)O)C(C)(O)C2(O)COC(=O)c2c(C)cccc2O)c1 (configuration not stated)
- T/C (dose: 0.5 mg/kg/injection, schedule: Q04DX004 (ip), vehicle: saline): 124 % of control
- T/C (dose: 1.0 mg/kg/injection, schedule: Q04DX004 (ip), vehicle: saline): 93 % of control
- T/C (dose: 2.0 mg/kg/injection, schedule: Q04DX004 (ip), vehicle: saline): 75 % of control
- T/C (dose: 4.0 mg/kg/injection, schedule: Q04DX004 (ip), vehicle: saline): 100 % of control

SMILES: [Na+]
- T/C (dose: 150.0 mg/kg/injection, schedule: Q04DX004 (ip), vehicle: water): 55 % of control
- T/C (dose: 300.0 mg/kg/injection, schedule: Q04DX004 (ip), vehicle: water): 70 % of control
- T/C (dose: 600.0 mg/kg/injection, schedule: Q04DX004 (ip), vehicle: water): 16 % of control
- T/C (dose: 1200.0 mg/kg/injection, schedule: Q04DX004 (ip), vehicle: water): 76 % of control

SMILES: c1ccc2c(NCCCCCCNc3c4ccccc4nc4ccccc34)c3ccccc3nc2c1
- T/C (dose: 5.0 mg/kg/injection, schedule: Q01DX010 (sc), vehicle: Klucel (hydroxypropylcellulose) (HPC)): 154 % of control
- T/C (dose: 10.0 mg/kg/injection, schedule: Q01DX010 (sc), vehicle: Klucel (hydroxypropylcellulose) (HPC)): 88 % of control

SMILES: CCCCC1CCCCCCc2[nH]c(/C=C3\N=C(c4ccc[nH]4)C=C3OC)cc21 (configuration not stated)
- T/C (dose: 2.0 mg/kg/injection, schedule: Q04DX004 (sc), vehicle: saline with Tween-80): 100 % of control
- T/C (dose: 4.0 mg/kg/injection, schedule: Q04DX004 (sc), vehicle: saline with Tween-80): 192 % of control
- T/C (dose: 8.0 mg/kg/injection, schedule: Q04DX004 (sc), vehicle: saline with Tween-80): 92 % of control

SMILES: O=C(Nc1cccc2c(OC(=O)C(Cl)Cl)c(N=Nc3ccc(S(=O)(=O)Nc4nccs4)cc3)cc(N=Nc3ccc(S(=O)(=O)Nc4nccs4)cc3)c12)C(Cl)Cl (tested in a mixture with another compound)
- T/C [1]: 58 % of control
- T/C [2]: 89 % of control
- T/C [3]: 78 % of control
- T/C [4]: 159 % of control

SMILES: Cc1cc(N)c2ccccc2[n+]1CCCCCCCCCC[n+]1c(C)cc(N)c2ccccc21
- T/C (dose: 0.38 mg/kg/injection, schedule: Q01DX010 (ip), vehicle: dextrose): 101 % of control
- T/C (dose: 0.75 mg/kg/injection, schedule: Q01DX010 (ip), vehicle: dextrose): 101 % of control
- T/C (dose: 1.5 mg/kg/injection, schedule: Q01DX010 (ip), vehicle: dextrose): 81 % of control

SMILES: O=c1[nH]c2c(ccc3cnccc32)c2c1CCC2
- T/C (dose: 225.0 mg/kg/injection, schedule: Q04DX004 (sc), vehicle: suspension in saline): 67 % of control
- T/C (dose: 450.0 mg/kg/injection, schedule: Q04DX004 (sc), vehicle: suspension in saline): 67 % of control
- T/C (dose: 900.0 mg/kg/injection, schedule: Q04DX004 (sc), vehicle: suspension in saline): 73 % of control
- T/C (dose: 1800.0 mg/kg/injection, schedule: Q04DX004 (sc), vehicle: suspension in saline): 53 % of control

SMILES: COc1cc(O)c2c(O)c3c(c4c2c1[C@]1(C4)C(C)=CCCC1(C)C)[C@H](O)[C@@]1(O)CC(=O)C(C(N)=O)=C(O)[C@@]1(O)C3=O
- T/C (dose: 9.4 mg/kg/injection, schedule: Q04DX004 (ip), vehicle: saline with Tween-80): 59 % of control
- T/C (dose: 18.8 mg/kg/injection, schedule: Q04DX004 (ip), vehicle: saline with Tween-80): 87 % of control
- T/C (dose: 37.5 mg/kg/injection, schedule: Q04DX004 (ip), vehicle: saline with Tween-80): 101 % of control

SMILES: N#CC(=C1SCS1)[N+](=O)[O-]
- T/C [5]: 69 % of control
- T/C [6]: 113 % of control

SMILES: O=C1OC(C(O)CO)C(O)=C1O (configuration not stated)
- T/C (dose: 400.0 mg/kg/injection, schedule: Q01DX010 (sc), vehicle: saline): 113 % of control
- T/C (dose: 800.0 mg/kg/injection, schedule: Q01DX010 (sc), vehicle: saline): 167 % of control

SMILES: CCCCc1ccc2nc(NC(=O)OC)[nH]c2c1
- T/C (dose: 25.0 mg/kg/injection, schedule: Q01DX010 (sc), vehicle: saline with Tween-80): 108 % of control
- T/C (dose: 100.0 mg/kg/injection, schedule: Q01DX010 (sc), vehicle: saline with Tween-80): 90 % of control
- T/C (dose: 200.0 mg/kg/injection, schedule: Q01DX010 (sc), vehicle: saline with Tween-80): 94 % of control

SMILES: O=NN(CCCl)C(=O)NC1OC(CO)C(O)C(O)C1O (configuration not stated)
- T/C (dose: 5.0 mg/kg/injection, schedule: Q04DX004 (sc), vehicle: saline): 75 % of control
- T/C (dose: 10.0 mg/kg/injection, schedule: Q04DX004 (sc), vehicle: saline): 76 % of control
- T/C (dose: 20.0 mg/kg/injection, schedule: Q04DX004 (sc), vehicle: saline): 57 % of control

SMILES: Cn1ccc(=Nc2ccc(NC(=O)c3ccc(N=c4ccn(C)c5ccc([N+](=O)[O-])cc45)cc3[N+](=O)[O-])cc2)cc1
- T/C [1]: 102 % of control
- T/C [2]: 104 % of control
- T/C [3]: 164 % of control
- T/C [4]: 156 % of control

SMILES: CCNC=O
- T/C (dose: 150.0 mg/kg/injection, schedule: Q01DX010 (ip), vehicle: suspension in saline): 82 % of control
- T/C (dose: 300.0 mg/kg/injection, schedule: Q01DX010 (ip), vehicle: suspension in saline): 42 % of control
- T/C (dose: 600.0 mg/kg/injection, schedule: Q01DX010 (ip), vehicle: suspension in saline): 39 % of control

SMILES: CNC1C(O)C(OC2C(N)CC(N)C(OC3OC(C(C)O)C(O)C(O)C3N)C2O)OCC1(C)O (configuration not stated)
- T/C (dose: 50.0 mg/kg/injection, schedule: Q04DX004 (ip), vehicle: saline): 102 % of control

SMILES: ClCCCN1CCCCC1CCl (configuration not stated)
- T/C (dose: 6.25 mg/kg/injection, schedule: Q04DX004 (sc), vehicle: saline): 57 % of control
- T/C (dose: 12.5 mg/kg/injection, schedule: Q04DX004 (sc), vehicle: saline): 95 % of control
- T/C (dose: 25.0 mg/kg/injection, schedule: Q04DX004 (sc), vehicle: saline): 71 % of control

SMILES: CCN1C=C/C(=C\C=C/c2cc[n+](CC)c3ccccc23)c2ccccc21
- T/C (dose: 0.5 mg/kg/injection, schedule: Q01DX010 (sc), vehicle: saline): 229 % of control
